SMILES strings stand for the structures.

Usually melting point stands for the temperature, or range, at which the solid turns liquid.

Take `CCCCC(C(=O)NO)S(=O)(=O)N1CC=C(c2ccc(-c3ccccc3)cc2)CC1` (racemic) [Example 13, N-Hydroxy-2(R,S)-[4-(4-phenylphenyl)-1,2,3,6-tetrahydropyridin-1-ylsulphonyl]hexanamide]: the melting point lay within 186 to 189 °C. The compound `C=C(C)CC(C(=O)NO)S(=O)(=O)N1CC=C(c2ccc(-c3ccccc3)cc2)CC1` (racemic) [Example 14, N-Hydroxy-4-methyl-2(R,S)-[4-(4-phenylphenyl)-1,2,3,6-tetrahydropyridin-1-ylsulphonyl]pent-4-enamide] yielded a melting point of 170 to 171 °C. `COCCC(C(=O)NO)S(=O)(=O)N1CC=C(c2ccc(-c3ccccc3)c(C)c2)CC1` (racemic) [Example 48, N-Hydroxy-4-methoxy-2(R,S)-[4-(3-methyl-4-phenylphenyl)-1,2,3,6-tetrahydropyridin-1-ylsulphonyl]butanamide] registered a melting point of 135 to 136 °C. Compound `O=C(NO)C(Cc1ccccc1)S(=O)(=O)N1CC=C(c2ccc(-c3ccccc3)cc2)CC1` (racemic) [Example 53, N-Hydroxy-3-phenyl-2(R,S)-[4-(4-phenylphenyl)-1,2,3,6-tetrahydropyridin-1-ylsulphonyl]propanamide] displayed a melting point of 202 to 205 °C. Next, `O=C(CS(=O)(=O)N1CC=C(c2ccc(-c3ccccc3)cc2)CC1)NO` [Example 1, N-Hydroxy-2-[4-(4-phenylphenyl)-1,2,3,6-tetrahydropyridin-1-ylsulphonyl]acetamide]: 216 to 218 °C; `O=C(CS(=O)(=O)N1CC=C(c2ccccc2)CC1)NO` [Example 4, N-Hydroxy-2-(4-phenyl-1,2,3,6-tetrahydropyridin-1-ylsulphonyl)acetamide]: 175 to 176 °C. With `O=C(CS(=O)(=O)N1CCC(c2ccccc2)CC1)NO` [Example 5, N-Hydroxy-2-(4-phenylpiperidin-1-ylsulphonyl)acetamide] the figure was 185 to 187 °C; with `O=C(CS(=O)(=O)N1CCC(Cc2ccccc2)CC1)NO` [Example 6, N-Hydroxy-2-(4-benzylpiperidin-1-ylsulphonyl)acetamide], 132 to 135 °C.

The compound `COc1cc(C2=CCN(S(=O)(=O)CC(=O)NO)CC2)ccc1-c1ccccc1` [Example 18, N-Hydroxy-2-[4-(3-methoxy-4-phenylphenyl)-1,2,3,6-tetrahydropyridin-1-ylsulphonyl]acetamide] gave a melting point of 175 to 177 °C. With `COc1cc(C2=CCN(S(=O)(=O)C(C)(C)C(=O)NO)CC2)ccc1-c1ccccc1` [Example 19, N-Hydroxy-2-[4-(3-methoxy-4-phenylphenyl)-1,2,3,6-tetrahydropyridin-1-ylsulphonyl]-2-methylpropanamide] the figure was 156 to 158 °C. As for `O=C(CS(=O)(=O)N1CC=C(c2ccc(-c3ccccc3)c(F)c2)CC1)NO` [Example 20, N-Hydroxy-2-[4-(3-fluoro-4-phenylphenyl)-1,2,3,6-tetrahydropyridin-1-ylsulphonyl]acetamide], the melting point was in the range of 184 to 188 °C. Take `CCOc1cccc(-c2ccc(C3=CCN(S(=O)(=O)CC(=O)NO)CC3)cc2)c1` [Example 21, N-Hydroxy-2-{4-[4-(3-ethoxyphenyl)phenyl]-1,2,3,6-tetrahydropyridin-1-ylsulphonyl}acetamide]: the melting point lay within 168 to 170 °C.

In turn, `COc1cccc(-c2ccc(C3=CCN(S(=O)(=O)CC(=O)NO)CC3)cc2C)c1` [Example 22, N-Hydroxy-2-{4-[4-(3-methoxyphenyl)-3-methylphenyl]-1,2,3,6-tetrahydropyridin-1-ylsulphonyl}acetamide] came in with a melting point of 162 to 165 °C. Next, `CCc1cccc(-c2ccc(C3=CCN(S(=O)(=O)CC(=O)NO)CC3)cc2C)c1` [Example 23, N-Hydroxy-2-{4-[4-(3-ethylphenyl)-3-methylphenyl]-1,2,3,6-tetrahydropyridin-1-ylsulphonyl}acetamide]: 151 to 154 °C; `COc1cccc(-c2ccc(C3CCN(S(=O)(=O)C(C)(C)C(=O)NO)CC3)cc2OC)c1` [Example 26, N-Hydroxy-2-{4-[3-methoxy-4-(3-methoxyphenyl)phenyl]piperidin-1-ylsulphonyl}-2-methylpropanamide]: 161 to 163 °C. For the compound `CCOc1cccc(-c2ccc(C3CCN(S(=O)(=O)C(C)(C)C(=O)NO)CC3)cc2OC)c1` [Example 27, N-Hydroxy-2-{4-[4(3-ethoxyphenyl)-3-methoxyphenyl]piperidin-1-ylsulphonyl}-2-methylpropanamide], the melting point is 134 to 136 °C. Next, `CCOc1cccc(-c2ccc(C3=CCN(S(=O)(=O)C(C)(C)C(=O)NO)CC3)cc2C)c1` [Example 30, N-Hydroxy-2-{4-[4-(3-ethoxyphenyl)-3-methylphenyl]-1,2,3,6-tetrahydropyridin-1-ylsulphonyl}2-methylpropanamide]: 116 to 118 °C; `CCOc1cccc(-c2ccc(C3CCN(S(=O)(=O)CC(=O)NO)CC3)cc2C)c1` [Example 31, N-Hydroxy-2-{4-[4-(3-ethoxyphenyl)-3-methylphenyl]piperidin-1-ylsulphonyl}acetamide]: 179 to 180 °C.

The compound `CCOc1cccc(-c2ccc(C3CCN(S(=O)(=O)C(C)(C)C(=O)NO)CC3)cc2C)c1` [Example 32, N-Hydroxy-2-{4-[4-(3-ethoxyphenyl)-3-methylphenyl]piperidin-1-ylsulphonyl}-2-methylpropanamide] showed a melting point of 172 to 174 °C.

Take `Cc1cc(C2=CCN(S(=O)(=O)CC(=O)NO)CC2)ccc1-c1cccnc1` [Example 34, N-Hydroxy-2-{4-[3-methyl-4-(pyridin-3-yl)phenyl]-1,2,3,6-tetrahydropyridin-1-ylsulphonyl}acetamide]: the melting point was 132 to 136 °C. With `Cc1cc(C2=CCN(S(=O)(=O)CC(=O)NO)CC2)ccc1-c1cccc(CO)c1` [Example 39, N-Hydroxy-2-{4-[4-(3-hydroxymethylphenyl)-3-methylphenyl]-1,2,3,6-tetrahydropyridin-1-ylsulphonyl}acetamide] the figure was 174 to 176 °C; with `COCc1cccc(-c2ccc(C3=CCN(S(=O)(=O)CC(=O)NO)CC3)cc2C)c1` [Example 42, N-Hydroxy-2-{4-[4-(3-methoxymethylphenyl)-3-methylphenyl]-1,2,3,6-tetrahydropyridin-1-ylsulphonyl}acetamide], 151 to 153 °C. Next, `COCCOc1cccc(-c2ccc(C3=CCN(S(=O)(=O)CC(=O)NO)CC3)cc2C)c1` [Example 43, N-Hydroxy-2-{4-[4-(3-[2-methoxyethoxy]phenyl)-3-methylphenyl]-1,2,3,6-tetrahydropyridin-1-ylsulphonyl}acetamide]: 158 to 160 °C; `Cc1cc(C2=CCN(S(=O)(=O)CC(=O)NO)CC2)ccc1-c1cccc(C(F)(F)F)c1` [Example 45, N-Hydroxy-2-{4[3-methyl-4-(3-trifluoromethylphenyl)phenyl]-1,2,3,6-tetrahydropyridin-1-ylsulphonyl}acetamide]: 168 to 170 °C; `O=C(CS(=O)(=O)N1CCC(c2ccc(Oc3ccccc3)cc2)CC1)NO` [Example 46, N-Hydroxy-2-[4-(4-phenoxyphenyl)piperidin-1-ylsulphonyl]acetamide]: 176 to 179 °C.

Consider `COCCOc1cccc(-c2ccc(C3CCN(S(=O)(=O)C(C)(C)C(=O)NO)CC3)cc2C)c1` [Example 47, N-Hydroxy-2-{4-[4-(3-[2-methoxyethoxy]phenyl)-3-methylphenyl]piperidin-1-ylsulphonyl}-2-methylpropanamide], for which the melting point lay within 155 to 156 °C. Next, `Cc1cc(C2=CCN(S(=O)(=O)CC(=O)NO)CC2)ccc1-c1ccc(F)c(Cl)c1` [Example 55, N-Hydroxy-2-{4-[4-(3chloro-4-fluorophenyl)-3-methylphenyl]-1,2,3,6-tetrahydropyridin-1-ylsulphonyl}acetamide]: 181 to 183 °C. With `Cc1cc(C2=CCN(S(=O)(=O)CC(=O)NO)CC2)ccc1-c1ccccc1F` [Example 57, N-Hydroxy-2-{4-[4-(2-fluorophenyl)-3-methylphenyl]-1,2,3,6-tetrahydropyridin-1-ylsulphonyl}acetamide] the figure was 160 to 163 °C. Next, `COc1ccc(-c2ccc(C3=CCN(S(=O)(=O)CC(=O)NO)CC3)cc2C)cc1OC` [Example 58, N-Hydroxy-2-{4-[4-(3,4-dimethoxyphenyl)-3-methylphenyl]-1,2,3,6-tetrahydropyridin-1-ylsulphonyl}acetamide]: 172 to 174 °C; `Cc1cc(C2=CCN(S(=O)(=O)CC(=O)NO)CC2)ccc1-c1ccc2c(c1)CCC2` [Example 59, N-Hydroxy-2-{4-[4-(indan-5-yl)-3-methylphenyl]-1,2,3,6-tetrahydropyridin-1-ylsulphonyl}acetamide]: 149 to 152 °C; `Cc1cc(C2=CCN(S(=O)(=O)CC(=O)NO)CC2)ccc1-c1cccc(OC(F)(F)F)c1` [Example 60, N-Hydroxy-2-{4-[3-methyl-4-(3-trifluoromethoxyphenyl)phenyl]-1,2,3,6-tetrahydropyridin-1-ylsulphonyl}acetamide]: 154 °C. For `Cc1cc(C2CCN(S(=O)(=O)C(C)(C)C(=O)NO)CC2)ccc1-c1ccc2c(c1)OC(C)(C)O2` [Example 62, N-Hydroxy-2-{4-[4-(2,2-dimethyl-1,3-benzodioxol-5-yl)-3-methylphenyl]-piperidin-1-ylsulphonyl}-2-methylpropionamide], the melting point was 184 to 186 °C. Compound `Cc1cc(C2CCN(S(=O)(=O)C(C)(C)C(=O)NO)CC2)ccc1-c1ccc2c(c1)nc(C)n2C` [Example 63, N-Hydroxy-2-{4-[4-(1,2-dimethylbenzimidazol-5-yl)-3-methylphenyl]piperidin-1-ylsulphonyl]-2-methylpropionamide] gave a melting point of 213 to 215 °C.

For the origin of these results see US6495568B1, “Hydroxamic acid derivatives as matrix metalloprotease (MMP) inhibitors” (Warner-Lambert Company, priority 1997, dated 2002).
